Tests used:
[1] = test system: MCF10A expressing inducible ErbB2 receptor; experiment: Cell traction force measurement by crossbow micropattern bar length on micropatterned PAA, ErbB2 inducible cells; format: cell-based, human; details: 1 μM, 48 hr before traction force measurement; FIG. 5C
Description: When actin cables have an unpredictable spatial distribution, a given deformation cannot be directly assigned to a defined force magnitude. Indeed, forces applied on adjacent adhesion sites both affect local deformations, due to the continuous nature of the substrate. Each deformation results from local and distant forces. So the calculation of the force field is highly dependent on the spatial distribution of force application sites and the relationship between deformation and forces varies from one cell to the other. The inventors hypothesized that in cells developing a reproducible architecture and a controlled pattern of force application, a given local deformation could be assigned to a defined value of the contractile force. […] When the deformation was measured along the shortest, and therefore most contracted, cell axis, the correlation was improved (FIG. 4C). […] On the crossbow, a single image acquisition was sufficient to measure the bar length and read the corresponding average cell traction force using the calibration curve (FIG. 4F). […]
The culture of MCF10A cells and the generation of ΔCK2β cell line was described previously (Deshiere et al (2008) Mol Cell Biochem 316(1-2):107-113). […] Substrate relaxation was assessed by detaching cells with trypsin. […]

MCF10A cells = experiment: Cell traction force measurement by crossbow micropattern bar length on micropatterned PAA; format: cell-based, human
Experimental: Non-tumorigenic human epithelial cells from the mammary gland, MCF10A, were plated on the micropatterned PAA substrates. Cells specifically attached to the fibronectin coated micropatterns since non-exposed PAA regions prevented protein adsorption (FIG. 2D). The effect of micropattern geometry on cell traction forces orientation was tested on various shapes: disc, pacman and crossbow (FIG. 3A). Spread cells exerted traction forces on the micropattern that could be measured by looking at the displacement of fluorescent beads embedded in the PAA gel (see FIG. 3B and Material and Methods). Particle Image Velocimetry followed by individual particle tracking were used to measure bead displacements (Marganski et al (2003) Methods Enzymol 361:197-211; Sabass et al (2008) Biophys J 94(1):207-220). Force fields were calculated from the bead displacement fields by using the Fourier transform traction cytometry (Sabass et al, supra; Butler et al (2002) Am J Physiol Cell Physiol 282(3):C595-605). Force fields exerted by individual cells were overlaid and averaged to quantify their reproducibility (FIG. 3C,D). On homogeneously coated regions cells developed forces that were randomly distributed from one cell to the other. In cells constrained on disc shaped micropatterns, forces were still randomly oriented but their magnitudes were lowered due to reduced cell spreading. In cells constrained on pacman shaped micropatterns, forces distribution was geometrically biased due to enhanced cell contraction above non adhesive regions. […] Importantly, most of the traction forces were reproducibly oriented upward, along the straight adhesive bar on the extremity of which the inventors measured the highest pressure (FIG. 3D). […]
When actin cables have an unpredictable spatial distribution, a given deformation cannot be directly assigned to a defined force magnitude. […] When the deformation was measured along the shortest, and therefore most contracted, cell axis, the correlation was improved (FIG. 4C). […]

Molecule: CCC(C)(C)C(=O)C(=O)N1CCCC[C@H]1C(=O)O[C@H](CCc1ccc(OC)c(OC)c1)c1cccc(OCC(=O)NCCNC(=O)COc2cccc([C@@H](CCc3ccc(OC)c(OC)c3)OC(=O)[C@@H]3CCCCN3C(=O)C(=O)C(C)(C)CC)c2)c1 [AP1510]
- level of cell contraction versus WT cells [1]: no significant changes in the level of cell contraction

Molecule: Cc1ccc2c(c1)C(=O)C1(O)CCN(c3ccccc3)C1=N2 (stereo not shown) [Blebbistatin]
- force magnitude decrease over time (MCF10A cells; 50 μM, single cell, FIG. 5B): follows a single exponential decay
- force inhibition profile in response to increasing dose (MCF10A cells; increasing drug concentrations successively applied to 6 cells, crossbow bar length, FIG. 5A): matched the myosin II inhibition profile

Molecule: TGFb1: known to induce epithelial to mesenchymal transition (R&D systems)
- level of cell contraction versus WT cells (crossbow shortening) (MCF10A cells; 2 ng/mL for 2 days before plating, FIG. 5C): significantly higher level of cell contraction

Source: US9250241B2, “Use of micropatterned soft substrate for measuring of cell traction forces” (COMMISSARIAT A L'ENERGIE ATOMIQUE ET AUX ENERGIES …, priority 2011, dated 2016)
